The source of these data is patent publication US12319752B2, “Heparin-binding cationic peptide self-assembling peptide amphiphiles useful against drug-resistant bacteria” (priority 2016, dated 2025).

One assay concerns E. coli. Put plainly: Bacterial growth inhibition (growth curves, OD562, 20 h). In kind it is cell-based, Escherichia coli (ATCC #25922). On the procedure: Gram-positive (S. aureus and MRSA) and Gram-negative (E. coli and MDR E. coli) bacteria were incubated with peptide concentrations ranging from 20 to 100 μM, and time-lapsed bacterial growth was monitored for 20 hours by determining the optical density at 562 nm (O.D. 562 nm). […] At the highest concentration tested (100 μM), the time to exponential growth phase of S. aurues was delayed by about 18 h (FIG. 5B), and was prolonged by almost 13 h for MRSA (FIG. 5A), while bacteria incubated without ACA-PA entered the exponential growth phase within 4 h. Gram-positive bacteria were also susceptible to the ACA-PA even below their CMC.
The MIC values of ACA-PA towards drug-resistant bacteria were determined after 24 h of incubation (Table 2).
(§1) This assay was performed to investigate the inhibitory effects of each peptide against Gram-positive Staphylococcus aureus (S. aureus, ATCC #25923) and methicillin-resistant S. aureus (MRSA, ATCC #43300), as well as Gram-negative Escherichia coli (E. coli, ATCC #25922), and multidrug-resistant E. coli (MDR E. coli, ATCC #BAA-2471). In all experiments, solutions of each peptide at the concentrations from 20 μM to 100 μM in 3% Tryptic Soy Broth (TSB) media were freshly prepared. A single colony of bacteria was isolated from a stock agar plate and cultured overnight in 4 mL of 3% TSB on a shaking incubator set at 200 rpm and 37° C. The bacteria culture was adjusted to an optical density at 562 nm (OD562) to about 0.52 (10^9 cells/mL), and the resulting bacteria suspension was subsequently diluted to about 10^6 colony forming units (CFU) per mL in each sample. The control samples were bacteria incubated in TSB media without peptides. The bacteria were incubated inside a spectrophotometer (Spectra-Max Paradigm, Molecular Devices, Sunnyvale, CA) at 37° C. under static conditions for 20 h, and the bacterial growth curves were measured in terms of turbidity at OD562 every 2 minutes. The normalized OD562 values of samples were calculated by subtracting the […].

Another assay has as its system MRSA. In kind it is cell-based, methicillin-resistant S. aureus (MRSA, ATCC #43300). As to conditions: 24 h. On the procedure: as §1, with “The bacteria culture was adjusted to an optical density at 562 nm (OD562) to about 0.52 (10^9 cells/mL), and the resulting bacteria suspension was subsequently diluted to about 10^6 colony forming units (CFU) per mL in each sample. The control samples were bacteria incubated in TSB media without peptides.” left out
The minimum inhibitory concentration (MIC) of ACA-PA was tested against drug-resistant bacteria and compared with conventional penicillin-streptomycin (10,000 U/mL, Thermo Fisher Scientific, Waltham, MA, USA) as well. […] The OD562 was measured at the end of treatment. […]

The subject of another assay is S. aureus. Description: Viable colony count assay (bactericidal effect, 4 h). The class given is cell-based, Staphylococcus aureus (ATCC #25923). On the procedure:
The bactericidal effects of the peptides were examined using a viable colony count assay as well as the live/dead staining assay. For the viable colony count assay, bacteria were treated with peptides for 4 h and the resulting viable bacterial density of each sample was expressed by log10[CFU/mL]. For the Gram-positive bacteria tested, the decrease in bacterial density was dependent on the concentration of the ACA-PA (FIG. 8A). […] As for Gram-negative E. coli and MDR E. coli bacteria (FIG. 8B), the ACA nanorods, wherein the PA were added at a concentration above their CMC, had potent bactericidal effects. For example, the ACA nanorods at concentrations over 60 μM reduced the colony forming units of Gram-negative bacteria by about a five log unit reduction after 4 h compared with the untreated negative control sample.
The viable count assay was performed to quantify the bactericidal activity of each peptide. Stock solutions of peptides were diluted in 3% TSB media to concentrations ranging from 20 μM to 100 μM immediately before experiments. Heparin-ACA-PA were also prepared by mixing the ACA-PA stock solution with heparin (sodium salt from porcine intestinal mucosa, Sigma, St. Louis, MO) to 1:1, 1:2 and 1:3 weight ratios in water, and a final concentration of ACA-PA in the heparin-ACA-PA at each heparin weight ratio was adjusted to 80 μM for each experiment. The bacteria (10^6 CFU/mL) were incubated with peptides at 37° C. for 4 h. After incubation, serial dilutions of samples were plated on TSB agar and then incubated at 37° C. overnight. The colonies from each spot were manually counted, and the CFU number for each sample was determined. Experiments were conducted in triplicate and results were expressed as the log 10 values of the CFU number in each sample. Data were expressed by stand error of the mean (±S.E.M.) and N=3, *p<0.05 compared with control samples and #p<0.05 compared with bacteria treated with 40 μM of ACA-PA.

Converted amounts (≈) assume the structure as drawn. Residues, ends and D or L forms follow the SMILES beside them. *: point of attachment. Palmitoyl = CCCCCCCCCCCCCCCC(=O)*

Take `CCCCCCCCCCCCCCCC(=O)N[C@H](C(=O)N[C@H](C(=O)N[C@H](C(=O)N[C@H](C(=O)N[C@@H](CCCCN)C(=O)N[C@@H](CCCCN)C(=O)N[C@@H](CCCCN)C(=O)N[C@@H](CCCCN)C(=O)NCC(=O)N[C@@H](C)C(=O)N[C@@H](CCCCN)C(=O)N[C@@H](CCCCN)C(=O)N[C@@H](C)C(=O)N[C@@H](CCCNC(=N)N)C(=O)N[C@@H](C)C(=O)N[C@@H](C)C(=O)N[C@@H](CCCCN)C(=O)N[C@@H](CCCCN)C(=O)N[C@@H](C)C(=O)N[C@@H](CCCNC(=N)N)C(=O)N[C@@H](C)C(=O)O)C(C)C)C(C)C)C(C)C)C(C)C` [ACA-PA, C16-V4K4G(AKKARA)2 (SEQ ID NO: 7)] (Palmitoyl-VVVVKKKKGAKKARAAKKARA-OH; N-terminus and C-terminus assumed): in the assay with E. coli (20 to 100 μM, 20 h), the bacterial growth inhibition entry is on record as “remarkably inhibited the proliferation”. In addition, in the assay on E. coli (concentrations higher than the CMC (60 μM to 100 μM)), the bacterial proliferation result is “significantly suppressed”. Further, in the assay with E. coli (concentrations lower than the CMC), the bacterial growth inhibition result is on record as “did not significantly inhibit bacterial growth”. Moreover, the “Minimum inhibitory concentration (MIC)” value with MRSA stood at 300 µg/mL (≈ 121 µM). Further, the “decrease in bacteria density” value with S. aureus (S. aureus (Gram-positive), 60 to 100 μM) is ~100 fold. Moreover, in the assay with S. aureus (S. aureus, over 80 μM, 4 h), the “decline in bacteria density” value is 100 fold and the “decrease of colony forming units” value is “two”.
